Results reported in patent US11274083B2, “Substituted thiophenyl uracils, salts thereof and the use thereof as herbicidal agents” (Syngenta Crop Protection AG, priority 2017, dated 2022).
“And” between values parts separate entries of the source, which are not always exact repeats. Identical values can stand only once.

Tests used:
Format in all cases: in vivo
Abutilon theophrasti [1] = assay: Herbicidal action post-emergence, greenhouse pot test; settings: application rate 80 g/ha
Procedure, shortened: (§1)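 Weeds in sandy loam pots sprayed at one-leaf stage (2–3 weeks after sowing) with WP or EC formulations in water plus 0.5% additive, 600 L/ha, at 80 g/ha or lower. After about 3 weeks in greenhouse, efficacy scored visually versus untreated controls (100% = dead, 0% = like control).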

Amaranthus retroflexus [2] = assay: as above; settings: application rate 80 g/ha
Procedure, shortened: as §1

Avena fatua [3] = assay: as above; settings: application rate 80 g/ha
Procedure, shortened: as §1

Echinochloa crus-galli [4] = assay: as above; settings: application rate 80 g/ha
Procedure, shortened: as §1

Hordeum murinum [5] = assay: as above; settings: application rate 80 g/ha
Procedure, shortened: as §1

Matricaria inodora [6] = assay: as above
Procedure, shortened: as §1

Pharbitis purpurea [7] = assay: as above; settings: application rate 80 g/ha
Procedure, shortened: as §1

Polygonum convolvulus [8] = assay: as above
Procedure, shortened: as §1

Setaria viridis [9] = assay: as above; settings: application rate 80 g/ha
Procedure, shortened: as §1

Stellaria media [10] = assay: as above; settings: application rate 80 g/ha
Procedure, shortened: as §1

Veronica persica [11] = assay: as above; settings: application rate 80 g/ha
Procedure, shortened: as §1

Viola tricolor [12] = assay: as above; settings: application rate 80 g/ha
Procedure, shortened: as §1

Glycine max = assay: Crop compatibility post-emergence, greenhouse pot test
Procedure, shortened: (§2)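 Sandy loam pots, greenhouse; one-leaf stage, 2–3 wk post-sowing; WP or EC, aq. spray on green parts, 0.5% additive, 600 L/ha; ~3 wk; visual score % vs untreated (0 = control-like, 100 = dead).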

Oryza sativa = assay: as above; settings: application rate 80 g/ha
Procedure, shortened: as §2

Triticum aestivum = assay: as above; settings: application rate 20 g/ha
Procedure, shortened: as §2

Zea mays = assay: as above
Procedure, shortened: as §2

Abutilon theophrasti [13] = assay: Herbicidal action pre-emergence, greenhouse pot test; settings: application rate 320 g/ha
Procedure, shortened: (§3)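 Seeds sown in pots and covered with soil; WP or EC formulations sprayed onto the soil surface as aqueous suspension/emulsion with 0.5% additive at 600 L/ha water, at 320 g/ha or lower. Plants kept in greenhouse; efficacy scored visually after about 3 weeks as % versus untreated controls (100% = dead).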

Alopecurus myosuroides [14] = assay: as above; settings: application rate 320 g/ha
Procedure, shortened: as §3

Amaranthus retroflexus [15] = assay: as above; settings: application rate 80 g/ha
Procedure, shortened: as §3

Avena fatua [16] = assay: as above; settings: application rate 320 g/ha
Procedure, shortened: as §3

Cyperus esculentus = assay: as above; settings: application rate 320 g/ha
Procedure, shortened: as §3

Echinochloa crus-galli [17] = assay: as above; settings: application rate 320 g/ha
Procedure, shortened: as §3

Hordeum murinum [18] = assay: as above; settings: application rate 320 g/ha
Procedure, shortened: as §3

Lolium rigidum [19] = assay: as above; settings: application rate 320 g/ha
Procedure, shortened: as §3

Pharbitis purpurea [20] = assay: as above; settings: application rate 320 g/ha
Procedure, shortened: as §3

Polygonum convolvulus [21] = assay: as above; settings: application rate 320 g/ha
Procedure, shortened: as §3

Setaria viridis [22] = assay: as above; settings: application rate 320 g/ha
Procedure, shortened: as §3

Stellaria media [23] = assay: as above; settings: application rate 320 g/ha
Procedure, shortened: as §3

Veronica persica [24] = assay: as above; settings: application rate 320 g/ha
Procedure, shortened: as §3

Viola tricolor [25] = assay: as above; settings: application rate 320 g/ha
Procedure, shortened: as §3

Matricaria inodora [26] = assay: as above; settings: application rate 320 g/ha
Alopecurus myosuroides [27] = assay: Herbicidal action post-emergence, greenhouse pot test; settings: application rate 80 g/ha, scored visually after about 3 weeks vs untreated controls
Procedure, shortened: as §1

Lolium rigidum [28] = assay: as above; settings: application rate 80 g/ha
Procedure, shortened: as §1

| SMILES | Abutilon theophrasti (Efficacy in %) (Abutilon theophrasti [1]) | Amaranthus retroflexus (Efficacy in %) (Amaranthus retroflexus [2]) | Echinochloa crus-galli (Efficacy in %) (Echinochloa crus-galli [4]) | Pharbitis purpurea (Efficacy in %) (Pharbitis purpurea [7]) | Setaria viridis (Efficacy in %) (Setaria viridis [9]) | Stellaria media (Efficacy in %) (Stellaria media [10]) | Veronica persica (Efficacy in %) (Veronica persica [11]) | Viola tricolor (Efficacy in %) (Viola tricolor [12]) | Oryza sativa (Efficacy in %) (Oryza sativa) | Triticum aestivum (Efficacy in %) (Triticum aestivum) | Abutilon theophrasti (Efficacy in %) (Abutilon theophrasti [13]) | Alopecurus myosuroides (Efficacy in %) (Alopecurus myosuroides [14]) | Amaranthus retroflexus (Efficacy in %) (Amaranthus retroflexus [15]) | Echinochloa crus-galli (Efficacy in %) (Echinochloa crus-galli [17]) | Lolium rigidum (Efficacy in %) (Lolium rigidum [19]) | Pharbitis purpurea (Efficacy in %) (Pharbitis purpurea [20]) | Polygonum convolvulus (Efficacy in %) (Polygonum convolvulus [21]) | Setaria viridis (Efficacy in %) (Setaria viridis [22]) | Stellaria media (Efficacy in %) (Stellaria media [23]) | Veronica persica (Efficacy in %) (Veronica persica [24]) | other results |
| --- | --- | --- | --- | --- | --- | --- | --- | --- | --- | --- | --- | --- | --- | --- | --- | --- | --- | --- | --- | --- | --- |
| CC(Sc1cc(-n2c(=O)cc(C(F)(F)F)n(C)c2=O)c(F)cc1Cl)C(=O)OC1CNC(=O)C1 (stereo not drawn) [I.1-254] | 100% | 100% | 100% | 100% | 100% | 90% | 90% | 100% | 0% | 10% | 100% | 100% | 100% | 100% | 100% | 100% | 100% | 100% | 100% | 100% | Avena fatua (Efficacy in %) (Avena fatua [3]): 80%; Hordeum murinum (Efficacy in %) (Hordeum murinum [5]): 100% and 80%; Matricaria inodora (Efficacy in %) (Matricaria inodora [6]; application rate 80 g/ha): 100%; Polygonum convolvulus (Efficacy in %) (Polygonum convolvulus [8]; application rate 80 g/ha): 100%; Glycine max (Efficacy in %) (Glycine max; application rate 20 g/ha): 20%; Zea mays (Efficacy in %) (Zea mays; application rate 80 g/ha): 0%; Avena fatua (Efficacy in %) (Avena fatua [16]): 90%; Cyperus esculentus (Efficacy in %) (Cyperus esculentus): 80%; Hordeum murinum (Efficacy in %) (Hordeum murinum [18]): 90%; Viola tricolor (Efficacy in %) (Viola tricolor [25]): 100%; Matricaria inodora (Efficacy in %) (Matricaria inodora [26]): 100% |
| CC(Sc1cc(-n2c(=O)cc(C(F)(F)F)n(C)c2=O)c(F)cc1Cl)C(=O)OCC1CCC(=O)N1 (stereo not drawn) [I.1-255] | 100% | 100% | 100% | 100% | 100% | 100% | 100% | 100% | 0% | 10% | 100% | 90% | 100% | 100% | 100% | 100% | 100% | 100% | 100% | 100% | Alopecurus myosuroides (Efficacy in %) (Alopecurus myosuroides [27]): 90%; Avena fatua (Efficacy in %) (Avena fatua [3]): 80%; Lolium rigidum (Efficacy in %) (Lolium rigidum [28]): 100%; Matricaria inodora (Efficacy in %) (Matricaria inodora [6]; application rate 80 g/ha): 100%; Polygonum convolvulus (Efficacy in %) (Polygonum convolvulus [8]; application rate 80 g/ha): 100%; Glycine max (Efficacy in %) (Glycine max; application rate 20 g/ha): 20%; Zea mays (Efficacy in %) (Zea mays; application rate 80 g/ha): 10%; Avena fatua (Efficacy in %) (Avena fatua [16]): 90%; Hordeum murinum (Efficacy in %) (Hordeum murinum [18]): 100%; Viola tricolor (Efficacy in %) (Viola tricolor [25]): 100%; Matricaria inodora (Efficacy in %) (Matricaria inodora [26]): 100% |
| COC(=O)CCOC(=O)C(C)(C)Sc1cc(-n2c(=O)cc(C(F)(F)F)n(C)c2=O)c(F)cc1Cl [I.46-2] | 100% | 100% | 100% | 100% | 100% | 80% | 80% | 80% | 20% | 20% | 100% | 90% | 100% | 100% | 100% | 100% | 100% | 100% | 100% | 100% | Matricaria inodora (Efficacy in %) (Matricaria inodora [6]; application rate 20 g/ha): 100%; Polygonum convolvulus (Efficacy in %) (Polygonum convolvulus [8]; application rate 20 g/ha): 100%; Glycine max (Efficacy in %) (Glycine max; application rate 5 g/ha): 20%; Zea mays (Efficacy in %) (Zea mays; application rate 20 g/ha): 20%; Matricaria inodora (Efficacy in %) (Matricaria inodora [26]): 100% |
